Test results published in publication PMC11747586, “Synthesis and Investigation of Peptide–Drug Conjugates Comprising Camptothecin and a Human Protein‐Derived Cell‐Penetrating Peptide” (Chemical Biology & Drug Design, 2025).
Positions of bridges follow the written chain, without caps; N, C: chain ends. Residues, ends and D or L forms follow the SMILES beside them.

Columns and labels:
[1] = Cytotoxicity (resazurin) against cultured HaCaT noncancerous cells
Procedure: (§1) Cell death was measured using resazurin, with 0.1% (v/v) Triton X‐100 as a control for 100% cell death. Data points are expressed as mean ± SD for at least two biological replicates. Dose response curves were fitted using [inhibitor] versus response with variable slope, Graphpad Prism v10. […] RBC lysis was determined by measuring released hemoglobin, with 0.1% (v/v) Triton X‐100 as a control for 100% cell lysis. Melittin was included as a membranolytic control. Data points are expressed as mean ± SD for two technical replicates. Dose response curves were fitted using [inhibitor] versus response with variable slope, Graphpad Prism v10. […] CC50 values are expressed as mean (SEM). […]
(§2) HaCaT cells were grown in DMEM medium and HT144 cells were grown in RPMI medium supplemented with 2 mM L-glutamine and 10 mM sodium pyruvate. Media were supplemented with 10% (v/v) fetal bovine serum, 100 units/mL of penicillin and […] of streptomycin. Flasks of cultured cells were maintained in a humidified incubator (37 °C, 5% CO2) and passaged every 2–3 days to maintain cultures between 20–90% confluence. Cell line identity was verified by comparing […]
(§3) STR profiles of the cell lines against database entries from the DSMZ-German collection of microorganisms and cell cultures, GmBH https://celldive.dsmz.de/str/browse.
(§4) Toxicity to the HT144 and HaCaT cell lines was tested following peptide treatment by measuring the metabolism of resazurin into fluorescent resorufin. The assays were performed with 5000 cells/well (96-well plate) in serum free media. Cells were incubated with serially diluted peptides, PDCs or drugs for 72 h or 24 h (37 °C, 5% CO2). PBS and 0.1% (v/v) Triton X-100 were included as controls for 0% and 100% toxicity. Resazurin was added at 0.02% (w/v) final concentration 2 h prior to the assay end point. Fluorescence (λex = 560 nm, λem = 585 nm) was measured using a Tecan infinite M1000Pro multiplate reader. Percentage cytotoxicity was calculated relative to 0% and 100% controls.
(§5) Dose-response curves were fitted and CC50 values were determined using [inhibitor] vs response with four parameters with the top constrained to 100% (GraphPad Prism version 10.0.2). Data was collected as three biological replicates, with experiments conducted on different days.
(§6) Red blood cell (RBC) lysis
(§7) Human RBCs and serum were obtained from healthy volunteers via the Red Cross Lifeblood, Brisbane, Australia. RBCs were washed three times with PBS and stored in culture medium (RPMI

[2] = tested on: HaCaT (noncancerous) cells; assay: as above; settings: read-out: CC50 HaCaT; 72 h incubation, resazurin; mean (SEM)
Procedure: as §1, §2, §3, §4, §5, §6, §7

[3] = Parallel artificial membrane permeability assay (PAMPA); type: in vitro ADME; settings: PAMPA
Procedure: FIGURE 4 (A) Membrane permeability and cellular uptake of PDCs, scaffold peptides, and CPT. Compounds were added to PAMPA wells (4 μM) and incubated for 4 h. Supernatant from apical and basolateral sides of the membrane were collected and analyzed using LC–MS. The amount in the combined soluble fractions was compared to the starting amount to determine % recovery, and the apparent permeability (Papp) was calculated as before (Sevin et al. [2013]). Data is expressed as mean ± SD from a single experiment with three technical replicates. (B) Internalization/cell membrane association of PDCs 12–14 and PDIP with HT144 cells. Cells were treated with PDIP or PDCs (4 μM) for 1 h, washed to remove extracellular compound, then extracted with 75% (v/v) MeCN in mQH2O (containing 1.75% (v/v) TFA), to recover soluble peptide or PDC from precipitated cell proteins. The relative amount of internalized peptide or PDC was determined by integrating area under the curve (AUC) for the [M + 6H]^6+ m/z peak (for the intact mass) using time of flight–mass spectrometry (see Figure S2). […] Data is expressed as mean ± SD from a single experiment with three technical replicates for each treatment and control and was analyzed with ANOVA (Tukey multiple comparisons; **p < 0.01, *p < 0.05). (C) Detection of intracellular CPT following 6 h treatment of HT144 cells with CPT and PDCs 12 and 14. […] Data is expressed as mean ± SD from a single experiment with three technical replicates for each treatment and was analyzed with ANOVA (Fisher multiple paired comparisons; **p < 0.01, *p < 0.05). TEXT PRINTED IN THE PICTURE: (A) PDIP: % recovered (soluble fractions): 94 | (A) 12: % recovered (soluble fractions): 58 | (A) 14: % recovered (soluble fractions): 33 | (A) 15: % recovered (soluble fractions): 40 | (A) c[A] PDIP: % recovered (soluble fractions): 34 | (A) CPT: % recovered (soluble fractions): 92 […]
For the first assay, the PDCs (12–15), scaffold peptides and CPT (4 μM) were added to the apical side of PAMPA monolayers and incubated for 4 h. […] PDIP, CPT, and PDCs 12 and 14 had high permeability (Papp ≥ 2 × 10^−6 cm/s), highlighting that these PDCs maintain membrane permeability with the CPT cargo attached. […] Reliable permeability data were not obtained for PDC 13 because of poor recovery of the PDC from soluble fractions, and degradation during the 4 h PAMPA experiment. […] Instability of the carbonate linkage within CPT conjugates containing a dipeptide linker has been previously reported (Walker et al. [2002]), highlighting the potential incompatibility of this drug–linker combination for CPT PDCs. Considering the observed degradation of 13 in the cell‐free assay, it is also possible that extracellular degradation occurred during the cytotoxicity assays.
Parallel artificial membrane permeability assay (PAMPA)
PAMPA was performed according to the manufacturer instructions for the BD Gentest pre-coated PAMPA plate system (BD Biosciences), as previously described.16 Briefly, peptides and PDCs (4 μM in PBS) were added to the apical side of PAMPA wells and incubated for 4 h at 37 °C, 5% CO2 with 95% humidity. Soluble fractions were recovered from the apical and basolateral sides, and compound concentration was quantified using a Shimadzu LCMS-2020 instrument with a Phenomenex 5 µm C18 / 300 Å / 150 x 2 mm LC column. Data was collected from three technical replicates for each compound. The % recovery was determined from (combined from apical and basolateral fractions) relative to the starting concentration:
Recovery rate : R (%) = (C஺ ×V஺ +C஻ ×V஻ )× 100 where CA and CB are the apical and basolateral concentrations (µM), VA and VB are the apical and basolateral volumes (mL), and C0 is the initial concentration (µM).
The apparent permeability coefficient (Papp) was calculated using the following equations17 and where A is the membrane surface area (cm2): […]

CC[C@H](C)[C@@H]1NC(=O)[C@H](CCCCN)NC(=O)[C@H](CCCCN)NC(=O)[C@H](Cc2ccc(O)cc2)NC(=O)[C@H](CC(C)C)NC(=O)[C@@H]2CCCN2C(=O)CNC(=O)CNC(=O)[C@@H](NC(=O)CN)CSSC[C@@H](C(=O)N[C@@H](CCC(=O)O)C(=O)N[C@@H](CO)C(N)=O)NC(=O)[C@H](CC(C)C)NC(=O)[C@H](CCCCN)NC(=O)[C@H](CCCCN)NC(=O)[C@H]([C@@H](C)CC)NC(=O)[C@H]([C@@H](C)CC)NC(=O)[C@H](CCCCN)NC(=O)[C@H](CCCCN)NC(=O)[C@H](Cc2ccc(O)cc2)NC(=O)[C@H](CC(C)C)NC(=O)[C@@H]2CCCN2C(=O)[C@H](C)NC(=O)CNC(=O)CNC(=O)[C@H](CO)NC(=O)CNC(=O)CNC(=O)[C@H](CO)NC(=O)[C@H](CCC(=O)O)NC(=O)[C@H](CC(C)C)NC(=O)[C@H](CC(C)C)NC(=O)[C@H](CCCCN)NC(=O)[C@H](CCCCN)NC(=O)[C@H]([C@@H](C)CC)NC1=O [PDIP, reference compound] (H-GCGGPLYKKIIKKLLESGGSGGAPLYKKIIKKLCES-NH2; disulfide 2-34; N-terminus assumed)
CC50 [1]: > 32 µM
CC50 [2]: ≥ 32 µM
Papp at 4 h, 4 μM [3]: ≥ 2 ×10⁻⁶ cm/s
